Experimental data reported in paper PMC10372009, “Molecular basis of GDF15 induction and suppression by drugs in cardiomyocytes and cancer cells toward precision medicine” (Scientific Reports, 2023).

Columns and labels:
Type in all cases: cell-based, human
[1] = test system: GDF15; assay: GDF15 secretion (ELISA) by hiPSC-CMs upon cardiotoxic drug treatment; conditions: 48 h; for fold increase of media concentration of GDF15: sublethal and highest (10 µM) concentrations, normalized by DMSO-only control; for GDF15 protein concentration: 1 µM drug
From the text: As many anticancer drugs are cardiotoxic and GDF15 is a well-known biomarker for heart failure, we employed a human induced pluripotent stem cell-derived cardiomyocytes (hiPSC-CMs) model to investigate the effect of drug-induced cardiotoxicity on GDF15 expression in host tissues. To adequately replicate cardiotoxicity using this model, we selected drugs whose cardiotoxic effect in vivo is based on cytotoxicity to cardiomyocytes.
Figure 2 Effect of cardiotoxic drugs on hiPSC-CMs viability and GDF15 secretion and modes of action of applied drugs. (A) hiPSC-CMs viability after 48 h treatment with 20 cardiotoxic drugs. (B) Fold-change of GDF15 expression upon 48 h treatment with 20 cardiotoxic drugs and their reported modes of action. GDF15 expression upon treatment with 10 µM, sublethal drug concentrations and maximal GDF15 induction (from concentration series depicted in (C)). Mean fold-change of 4 biological replicates with a 95% confidence interval were normalized by DMSO-only control. (C) Drug-induced GDF15 expression for different drug concentrations. Fold-change of GDF15 protein concentration upon 48 h treatment with ten cardiotoxic drugs (marked with * in A and B).
(§1) Cardiotoxic drug (SCREEN-WELL® Cardiotoxicity library, BML-2850, ENZO) library was prepared by serial dilution of 10 mM stocks in DMSO to 9 different concentrations ranging from 0.001 to 10 mM, which were further diluted into assay plates to final concentrations ranging from 0.001 to 10 µM. […] The final concentration of DMSO for hiPSC-CMs assay was 0.1%. To investigate the influence of BET inhibitor treatment on doxorubicin induced GDF15 mRNA expression, hiPSC-CMs were pre-treated with 20 nM or 200 nM doxorubicin for 48 h and kept in medium without compound for 24 h before 24 h treatment with either 100 nM BI 894999 or 500 nM OTX015. […] Cancer cell lines were treated with 10 nM, 35 nM or 100 nM of BI 894999 for 4 h or 24 h (Supplementary Table S3).
(§2) For GDF15 mRNA quantification, total RNA was isolated from the cells using an RNeasy kit (Qiagen, 74106) to synthesize cDNA using a Taqman Reverse Transcription kit (Applied Biosystems, N8080234). Quantitative real-time PCR analysis was performed using QuantiNova SYBR Green PCR Kit (Qiagen, 208052) on a CFX96 Real-Time System (Bio-Rad) under the following amplification conditions: 95 °C for 2 min followed by 40 cycles of 95 °C for 5 s and 60 °C for 10 s. The primer sequences are GDF15-F: 5′-[…]-3′, GDF15-R: 5′-[…]-3′, ACTB-F: 5′-[…]-3′ and ACTB-R: 5′-[…]-3′. PCR data were analyzed using a modified relative expression software tool (REST) and the expression level of GDF15 gene was normalized to that of β-actin. For secreted GDF15 protein quantification, cell culture medium was collected after drug treatment and stored at − 20 °C until ELISA was performed using Human GDF-15 ELISA Kit (Abcam, ab155432) according to the manufacturer’s instruction. Resulting GDF15 concentrations were normalized to non-treated control and respective relative cell viability.

[2] = test system: GDF15; assay: GDF15 gene expression of NCI-60 cancer cell lines treated with 15 anticancer drugs (public data, linear regression); conditions: data ref 34; for induction of GDF15 on average: NCI-60 cancer cell lines; for ratio of responsive cell lines (GDF15 induction): all NCI-60 cell lines, responsive: slope > 0.02 and R-squared > 0.5 within 24 h
From the text: To get further insights into how chemotherapy influences GDF15 expression in cancer, we analyzed public gene expression data of NCI-60 cancer cell lines treated with 15 different anticancer drugs. We used linear regression to quantify the cell line’s drug-specific responsiveness regarding GDF15 induction and categorized the cell lines as “responsive” or “resistant”. Comparing the number of responsive cell lines per drug, we found the ratio of responsive cell lines ranged from 4% for sirolimus to 71% for sorafenib (Supplementary Figure S2). Drugs with DNA damaging properties tended to induce GDF15 more strongly than drugs with other modes of action.
Figure 3 NCI-60 cell line clustering. (A) Hierarchically clustered correlation matrix of GDF15 gene expression levels by NCI-60 cell lines upon 15 drug treatments. Pearson correlation coefficients were calculated evaluating linear regression slope of GDF15 expression within the first 24 h of drug treatment. Clustering of cell lines was performed using Weighted Pair Group Method with Arithmetic Mean (WPGMA) algorithm based on Pearson correlation coefficients. Four cell line clusters were identified. Tissue types of cell lines are color coded. (B) Drug-specific fraction of responsive NCI-60 cell lines in each identified cell line cluster for 15 anticancer drugs. Responsiveness was assumed when linear regression slope of GDF15 expression within 24 h of drug treatment was > 0.02 and R-squared > 0.5. (C) Predicted basally activated or inhibited pathways for the cell line cluster based on identified differences in gene expression.
We obtained basal gene expression values and mutational status of all cancer cell lines from our in-house cancer cell line database. Gene expression data of NCI-60 after compound treatment, basal protein expression, drug sensitivity data, gene dependency data, metabolite expression and compound specifications such as IC50 values and modes of action were collected from different studies and data bases, as described in the supplementary information.
Each NCI-60 cell line was assigned to an array containing 15 drug-specific linear regression slopes of GDF15 mean fold-change. We calculated the Pearson correlation coefficient for every cell line pair to build a 60 × 60 correlation matrix. For agglomerative hierarchical clustering, we applied a “Weighted Pair Group Method with Arithmetic Mean” (WPGMA) algorithm to the resulting correlation matrix. The identified clusters represent groups of cell lines that are closely positioned to each other in this 15-dimensional data set and therefore have more similarities regarding GDF15 expression upon treatment with the 15 drugs compared to cell lines of other clusters.
Supplementary Materials and Methods
Data collection of cancer cell line properties
Gene expression data of NCI-60 upon treatment with 15 anticancer compounds were collected from NCI-
60 Transcriptional Pharmacodynamics Workbench 11. […]

[3] = test system: GDF15; assay: Doxorubicin-induced GDF15 secretion in hiPSC-CMs, simultaneous treatment with BET inhibitors (ELISA); conditions: simultaneous 100 nM doxorubicin and 0.1 to 1000 nM BET inhibitor, 48 h
From the text: (§3) Host cells are known to contribute to elevated GDF15 levels in cachexia patients when exposed to drug toxicity. […] We plotted GDF15 fold-changes against the respective reported half maximal inhibitory concentrations (IC50) of each BET inhibitor for BRD2, BRD3 and BRD4, whenever available. GDF15 fold-change thereby meant the ratio of GDF15 expression induced by doxorubicin only and doxorubicin combined with BET inhibitor normalized to cell viability.
as §1, §2
Supplementary Figure S6. (A) Fold-change of GDF15 secretion by hiPSC-CMs after simultaneous
treatment with doxorubicin and seven BET Inhibitors for 48 h. Normalized to cell viability and non-treated […]

[4] = test system: GDF15; assay: Doxorubicin-induced GDF15 mRNA expression in hiPSC-CMs, successive treatment with BET inhibitors (qPCR)
From the text: as §3, §1
as §2, with “β-actin.” for “β-actin. For secreted GDF15 protein quantification, cell culture medium was collected after drug treatment and stored at − 20 °C until ELISA was performed using Human GDF-15 ELISA Kit (Abcam, ab155432) according to the manufacturer’s instruction. Resulting GDF15 concentrations were normalized to non-treated control and respective relative cell viability.”

## COc1cc(NS(C)(=O)=O)ccc1Nc1c2ccccc2nc2ccccc12 [Amsacrine]
[1]
  fold increase of media concentration of GDF15: more than threefold

## CC(C)C[C@H](NC(=O)[C@H](Cc1ccccc1)NC(=O)c1cnccn1)B(O)O [Bortezomib]
[2]; NCI-60 cluster B
  fraction of responsive cell lines in cluster B: all

## Cc1sc2c(c1C)C(c1ccc(Cl)cc1)=N[C@@H](CC(N)=O)c1nnc(C)n1-2 [CPI203]
[3]
  effect on doxorubicin-induced GDF15 overexpression (secretion): suppressed

## CC[C@@]1(O)C(=O)OCc2c1cc1n(c2=O)Cc2cc3ccccc3nc2-1 [Camptothecin]
[1]
  fold increase of media concentration of GDF15: more than threefold

## COc1cccc2c1C(=O)c1c(O)c3c(c(O)c1C2=O)C[C@@](O)(C(C)=O)C[C@@H]3O[C@H]1C[C@H](N)[C@H](O)[C@H](C)O1 [Daunorubicin]
[1]
  GDF15 protein concentration: exceeded the upper limit of quantification

## COc1cccc2c1C(=O)c1c(O)c3c(c(O)c1C2=O)C[C@@](O)(C(=O)CO)C[C@@H]3O[C@H]1C[C@H](N)[C@H](O)[C@H](C)O1 [Doxorubicin]
[2]; NCI-60 cluster C
  fraction of responsive cell lines in cluster C: 63.6%
[1]
  fold increase of media concentration of GDF15: more than threefold
[4]; doxorubicin treatment (20 or 200 nM)
  increase of GDF15 expression on RNA level: up to sevenfold

## COc1cc([C@@H]2c3cc4c(cc3[C@@H](O[C@@H]3O[C@@H]5CO[C@@H](C)O[C@H]5[C@H](O)[C@H]3O)[C@H]3COC(=O)[C@H]23)OCO4)cc(OC)c1O [Etoposide]
[1]
  fold increase of media concentration of GDF15: more than threefold

## COc1cc2c(cc1-c1c(C)noc1C)ncc1[nH]c(=O)n([C@H](C)c3ccccn3)c12 [I-BET151]
[3]
  effect on doxorubicin-induced GDF15 overexpression (secretion): suppressed

## CC(=O)[C@]1(O)Cc2c(O)c3c(c(O)c2[C@@H](O[C@H]2C[C@H](N)[C@H](O)[C@H](C)O2)C1)C(=O)c1ccccc1C3=O [Idarubicin]
[1]
  GDF15 protein concentration: exceeded the upper limit of quantification
  fold increase of media concentration of GDF15: more than threefold

## Cc1sc2c(c1C)C(c1ccc(Cl)cc1)=N[C@@H](CC(=O)Nc1ccc(O)cc1)c1nnc(C)n1-2 [OTX015]
[4]; BET inhibitor given subsequently to doxorubicin
  effect on doxorubicin-induced GDF15 overexpression (mRNA): suppressed
[3]
  effect on doxorubicin-induced GDF15 overexpression (secretion): suppressed

## COc1ccccc1S(=O)(=O)Nc1ccc2c(c1)CN(C)C(=O)N2 [PFI-1]
[3]
  effect on doxorubicin-induced GDF15 overexpression (secretion): suppressed

## CCN(CC)CCNC(=O)c1c(C)[nH]c(/C=C2\C(=O)Nc3ccc(F)cc32)c1C [Sunitinib]
[2]
  induction of GDF15 on average: did not lead to notable GDF15 regulation

## Nc1ncn([C@@H]2O[C@H](CO)[C@@H](O)[C@H]2O)c(=O)n1 [azacytidine]
[2]; NCI-60 cluster D
  fraction of responsive cell lines in cluster D: all

## CO[C@H]1C[C@@H]2CC[C@@H](C)[C@@](O)(O2)C(=O)C(=O)N2CCCC[C@H]2C(=O)O[C@H]([C@H](C)C[C@@H]2CC[C@@H](O)[C@H](OC)C2)CC(=O)[C@H](C)/C=C(\C)[C@@H](O)[C@@H](OC)C(=O)[C@H](C)C[C@H](C)/C=C/C=C/C=C/1C [sirolimus]
[2]
  ratio of responsive cell lines (GDF15 induction): 4%

## CNC(=O)c1cc(Oc2ccc(NC(=O)Nc3ccc(Cl)c(C(F)(F)F)c3)cc2)ccn1 [sorafenib]
[2]
  induction of GDF15 on average: threefold
  ratio of responsive cell lines (GDF15 induction): 71%
[2]; NCI-60 cluster A
  fraction of responsive cell lines in cluster A: all
